A short description of series [1]: Selectivity index, ratio of TC50 for human HepG2(2.2.15) cells to IC50 for decrease in hepatitis B viral surface antigen HBsAg secretion in human HepG2(2.2.15) cells.
The nature of series [2]: Selectivity index, ratio of TC50 for human HepG2(2.2.15) cells to IC50 for decrease in HBV viral DNA replication in human HepG2(2.2.15) cells.
The test system of series [3] is Hepatitis B virus. Briefly: Decrease in hepatitis B viral surface antigen HBsAg secretion in human HepG2(2.2.15) cells at 0.75 to 3 uM after 72 hrs by EIA analysis. It counts as functional, organism-based. As to conditions: HepG2 2.2.15, 72 h.
A short description of series [4]: Selectivity index, ratio of TC50 for human HepG2(2.2.15) cells to IC50 for decrease in hepatitis B viral surface antigen HBeAg secretion in human HepG2(2.2.15) cells.
Series [5] can be described thus: Cytotoxicity against human HepG2(2.2.15) cells assessed as decrease in cell viability after 72 hrs by MTS assay. To be noted: read-out: TC50. It counts as cell-based.
In series [6] the test system is Hepatitis B virus. Briefly: Decrease in HBV viral DNA replication in human HepG2(2.2.15) cells at 0.75 to 3 uM after 72 hrs by real-time PCR analysis. The series is classed as functional, organism-based. To be noted: HepG2 2.2.15, 72 h. Background: Quantitative PCR measures a nucleic acid by following its amplification.
Series [7] has as its system Hepatitis B virus. Briefly: Decrease in hepatitis B viral surface antigen HBeAg secretion in human HepG2(2.2.15) cells at 0.75 to 3 uM after 72 hrs by EIA analysis. It counts as functional, organism-based. To be noted: HepG2 2.2.15, 72 h.
Series [8] concerns Hepatitis B virus. The series is described as follows: Decrease in level of HBV 3.5-kb precore/pregenomic and 2.4-/2.1-kb surface antigen RNA in human HepG2(2.2.15) cells after 48 hrs by Northern blot analysis. The series is classed as functional, organism-based.
The nature of series [9]: Effect on cell cycle of human HepG2(2.2.15) cells assessed as cells at G2M phase at 0.75 to 3 uM after 72 hrs by propidium iodide staining based flow cytometry. It counts as ADME. As to conditions: hepg2 2.2.15, 72 h. Background: Flow cytometry measures light scatter and fluorescence of single cells or particles in a stream.
Series [10] is described as follows: Effect on cell cycle of human HepG2(2.2.15) cells assessed as cells at G1 phase at 0.75 to 3 uM after 72 hrs by propidium iodide staining based flow cytometry. As to conditions: hepg2 2.2.15, 72 h. It counts as ADME.
A short description of series [11]: Effect on cellular morphology of human HepG2(2.2.15) cells at 0.75 to 3 uM after 72 hrs by Giemsa staining method. The series is classed as ADME, cell-based. To be noted: hepg2 2.2.15, 72 h.

As for `COc1ccc(C(C)=O)c(OS(=O)(=O)c2ccccc2)c1`, the “Selectivity Index” value in series [1] was determined as 7.58; in series [2], 29.77; in series [4], 3.36. Further, the IC50 (in general, the concentration that inhibits the measured activity by half) in the series with Hepatitis B virus [3] was determined as 7.3 µM; in the series with Hepatitis B virus [6], 1.86 µM; in the series with Hepatitis B virus [7], 16.5 µM. The CC50 at 72 h in [5] was determined as 55.4 µM.
For the molecule `COc1ccc(S(=O)(=O)Oc2cc(OC)ccc2C(C)=O)cc1`, in the series with Hepatitis B virus [8], the inhibition result was “Dose-dependent effect”. The Activity result in [9], in series [10] and in series [11] was “Non-toxic” each time. Further, the “Selectivity Index” value was determined as 11.09 in series [1], 47.75 in [2] and 7.67 in series [4]. Besides, the IC50 in the series with Hepatitis B virus [3] is 1.55 µM; in the series on Hepatitis B virus [6], 0.36 µM; in the series with Hepatitis B virus [7], 2.24 µM. The CC50 at 72 h in series [5] turned out to be 17.2 µM.
As to `O=c1[nH]cc(F)c(=O)[nH]1` [FLUOROURACIL], the CC50 at 72 h in series [5] turned out to be 21.7 µM.
With `COc1ccc(C(C)=O)c(OS(=O)(=O)c2ccc(Br)cc2)c1`, the “Selectivity Index” value turned out to be 4.99 in series [1], 22.91 in series [2] and 5.42 in series [4]. For the same molecule, the IC50 worked out at 2.01 µM in the series with Hepatitis B virus [3], 0.44 µM with Hepatitis B virus [6] and 1.86 µM in the series on Hepatitis B virus [7]. The CC50 at 72 h in [5] came to 10.1 µM.
`COc1ccc(C(C)=O)c(OS(=O)(=O)c2ccc(N)cc2)c1`: the figures for the “Selectivity Index” value in series [1] and in [4] were 3.17 and 0.95, respectively. Further, the IC50 came out at 21.7 µM with Hepatitis B virus [3] and 72.5 µM in the series on Hepatitis B virus [7]. Besides, in [5], the CC50 at 72 h was determined as 68.8 µM.
For `COc1ccc(C(C)=O)c(OS(=O)(=O)c2ccc([N+](=O)[O-])cc2)c1`, the “Selectivity Index” value in series [1] stood at 6.17; in series [2] it was 9.5; in series [4], 2.35. In addition, the IC50 was determined as 1.77 µM in the series on Hepatitis B virus [3], 1.15 µM in the series with Hepatitis B virus [6] and 4.64 µM in the series with Hepatitis B virus [7]. In series [5], the CC50 at 72 h stood at 10.9 µM.
For `COc1ccc(C(C)=O)c(OS(=O)(=O)c2ccc(F)cc2)c1`, the “Selectivity Index” value was 10.64 in series [1], 19.82 in series [2] and 4.81 in [4]. The 50% inhibitory concentration (IC50) in the series on Hepatitis B virus [3] was found to be 5.05 µM; in the series on Hepatitis B virus [6] it was 2.71 µM; in the series on Hepatitis B virus [7], 11.2 µM. Moreover, the CC50 at 72 h in [5] came to 53.7 µM.
For the molecule `COc1ccc(C(C)=O)c(OS(=O)(=O)c2ccc(Cl)cc2)c1`, the “Selectivity Index” value in series [1] is 4.87; in [2], 24.16; in series [4], 3.28. Besides, the figures for the IC50 with Hepatitis B virus [3], in the series with Hepatitis B virus [6] and with Hepatitis B virus [7] were 2.83 µM, 0.57 µM and 4.2 µM, respectively. For the same molecule, the CC50 at 72 h in series [5] worked out at 13.8 µM.
Regarding `Nc1ccn([C@@H]2CS[C@H](CO)O2)c(=O)n1` [LAMIVUDINE], in series [2], the “Selectivity Index” value amounted to 46.13. The CC50 at 72 h in series [5] was 352 µM. The molecule also had an IC50 in the series on Hepatitis B virus [6] of 7.63 µM.
Regarding `COc1ccc(C(C)=O)c(OS(=O)(=O)c2ccc(C)cc2)c1`, the “Selectivity Index” value in [1] turned out to be 7.46; in series [2], 22.81; in [4] it was 3.47. Further, the results for the IC50 with Hepatitis B virus [3], in the series with Hepatitis B virus [6] and in the series with Hepatitis B virus [7] were 3.18 µM, 1.04 µM and 6.83 µM, respectively. For the same molecule, the CC50 at 72 h in series [5] came out at 23.7 µM.
